In patent US20210276987A1, “PHARMACEUTICAL AGENTS FOR USE IN SMOKING AND TOBACCO CESSATION” (Washington State University, priority 2018, published 2021):
Read-outs that look alike come from different tables or passages of the source.

Assays:
UGT2B4 = UGT2B4 (Homo sapiens, UniProt P06133); settings: Table 10
CYP2C8 = biological target: T1, CYP2C8 (Homo sapiens, UniProt P10632); settings: Table 6
T1 sequence (P10632 1-490): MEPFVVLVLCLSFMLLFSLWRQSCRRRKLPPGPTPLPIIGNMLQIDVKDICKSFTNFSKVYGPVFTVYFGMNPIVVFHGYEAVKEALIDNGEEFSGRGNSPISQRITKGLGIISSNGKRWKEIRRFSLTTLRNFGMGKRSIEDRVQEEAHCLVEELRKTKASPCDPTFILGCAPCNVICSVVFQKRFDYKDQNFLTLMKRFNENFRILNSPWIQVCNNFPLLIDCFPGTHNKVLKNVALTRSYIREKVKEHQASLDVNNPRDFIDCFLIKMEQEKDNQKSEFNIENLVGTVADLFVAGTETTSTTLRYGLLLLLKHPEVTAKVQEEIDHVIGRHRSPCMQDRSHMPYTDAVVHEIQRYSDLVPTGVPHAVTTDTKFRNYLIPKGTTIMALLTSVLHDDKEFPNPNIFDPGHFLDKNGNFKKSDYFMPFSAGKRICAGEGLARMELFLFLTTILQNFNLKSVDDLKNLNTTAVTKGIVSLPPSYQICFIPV

CYP2C9 = CYP2C9 (Homo sapiens, UniProt P11712); assay: CYP2C9 inhibition assay, human liver microsomes, diclofenac probe (cocktail); settings: Table 6
UGT1A9 = UGT1A9 (Homo sapiens, UniProt O60656); settings: Table 10
CYP2A6 [1] = biological target: T2, CYP2A6 (Homo sapiens, UniProt P11509); settings: read-out: IC50 against CYP2A6; Table 5, alkyne linker agents; pooled human liver microsomes, coumarin […]
T2 sequence (P11509 1-494): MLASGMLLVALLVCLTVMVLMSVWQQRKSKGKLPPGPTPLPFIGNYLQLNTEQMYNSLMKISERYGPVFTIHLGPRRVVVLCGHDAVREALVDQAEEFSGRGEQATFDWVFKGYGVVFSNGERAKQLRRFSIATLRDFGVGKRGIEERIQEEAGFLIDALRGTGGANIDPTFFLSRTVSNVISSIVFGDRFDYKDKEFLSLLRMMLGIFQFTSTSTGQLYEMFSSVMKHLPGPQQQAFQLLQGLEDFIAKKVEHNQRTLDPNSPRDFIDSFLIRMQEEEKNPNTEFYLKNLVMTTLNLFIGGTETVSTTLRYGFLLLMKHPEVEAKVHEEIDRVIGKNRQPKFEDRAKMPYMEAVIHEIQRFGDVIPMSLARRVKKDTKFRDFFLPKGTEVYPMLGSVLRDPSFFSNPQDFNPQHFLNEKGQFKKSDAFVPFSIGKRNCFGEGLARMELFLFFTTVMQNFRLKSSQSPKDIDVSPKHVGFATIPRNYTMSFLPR

CYP2A6 [2] = biological target: T2, CYP2A6; assay: biochemical; settings: IC50 against CYP2A6; human liver microsomes
UGT2B10 = biological target: T3, UGT2B10 (Homo sapiens, UniProt P36537); assay: biochemical
T3 sequence (P36537 24-528): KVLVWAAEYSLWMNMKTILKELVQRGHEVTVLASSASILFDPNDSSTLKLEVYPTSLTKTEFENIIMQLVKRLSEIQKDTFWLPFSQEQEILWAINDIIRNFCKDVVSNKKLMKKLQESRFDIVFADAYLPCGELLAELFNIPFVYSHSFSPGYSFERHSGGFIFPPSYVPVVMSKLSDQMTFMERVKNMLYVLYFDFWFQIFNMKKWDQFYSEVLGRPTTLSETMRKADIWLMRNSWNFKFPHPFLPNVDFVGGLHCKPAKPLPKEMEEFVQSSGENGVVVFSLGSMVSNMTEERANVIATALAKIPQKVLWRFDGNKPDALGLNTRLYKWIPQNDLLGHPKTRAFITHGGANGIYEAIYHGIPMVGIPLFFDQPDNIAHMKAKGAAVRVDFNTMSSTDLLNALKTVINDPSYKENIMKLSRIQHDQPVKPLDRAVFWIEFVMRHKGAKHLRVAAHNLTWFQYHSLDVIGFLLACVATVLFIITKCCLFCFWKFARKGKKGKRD
Experimental: Initial screening assays were performed as described above for the CYP assays using 1 μM or 10 μM of each of the NAs. The inhibitory effects of each agent against UGT2B10 was performed using the known UGT2B10-specific probe substrate, nicotine, in pooled human liver microsomes. […] Pre-incubations containing 500 μM nicotine and 1 or 10 μM NA were subsequently performed at 37° C. in 50 mM Tris-HCl buffer (pH 7.5, in a final volume of 50 μL) and 10 mM MgCl2 for 5 minutes.

UGT2B7 = UGT2B7 (Homo sapiens, UniProt P16662); settings: Table 10
CYP2B6 = biological target: T4, CYP2B6 (Homo sapiens, UniProt P20813); settings: Table 6
T4 sequence (P20813 1-491): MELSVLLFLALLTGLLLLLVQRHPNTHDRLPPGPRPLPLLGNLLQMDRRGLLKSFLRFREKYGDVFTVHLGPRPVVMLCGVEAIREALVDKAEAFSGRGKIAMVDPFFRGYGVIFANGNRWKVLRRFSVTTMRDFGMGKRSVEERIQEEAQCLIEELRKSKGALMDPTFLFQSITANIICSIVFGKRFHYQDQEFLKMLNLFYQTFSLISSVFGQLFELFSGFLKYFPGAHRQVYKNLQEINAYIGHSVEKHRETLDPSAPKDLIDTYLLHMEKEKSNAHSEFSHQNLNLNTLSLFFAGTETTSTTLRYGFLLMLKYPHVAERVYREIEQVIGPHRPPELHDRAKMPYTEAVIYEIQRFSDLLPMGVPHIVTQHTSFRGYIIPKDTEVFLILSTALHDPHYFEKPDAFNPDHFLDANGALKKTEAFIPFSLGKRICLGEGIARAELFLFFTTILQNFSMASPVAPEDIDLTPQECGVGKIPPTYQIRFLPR

CYP2E1 = CYP2E1 (Homo sapiens, UniProt P05181); settings: Table 6
UGT1A1 = UGT1A1 (Homo sapiens, UniProt P22309); settings: Table 10
UGT2B15 = UGT2B15 (Homo sapiens, UniProt P54855); settings: Table 10
Chain of UGT2B15 (P54855 24-530): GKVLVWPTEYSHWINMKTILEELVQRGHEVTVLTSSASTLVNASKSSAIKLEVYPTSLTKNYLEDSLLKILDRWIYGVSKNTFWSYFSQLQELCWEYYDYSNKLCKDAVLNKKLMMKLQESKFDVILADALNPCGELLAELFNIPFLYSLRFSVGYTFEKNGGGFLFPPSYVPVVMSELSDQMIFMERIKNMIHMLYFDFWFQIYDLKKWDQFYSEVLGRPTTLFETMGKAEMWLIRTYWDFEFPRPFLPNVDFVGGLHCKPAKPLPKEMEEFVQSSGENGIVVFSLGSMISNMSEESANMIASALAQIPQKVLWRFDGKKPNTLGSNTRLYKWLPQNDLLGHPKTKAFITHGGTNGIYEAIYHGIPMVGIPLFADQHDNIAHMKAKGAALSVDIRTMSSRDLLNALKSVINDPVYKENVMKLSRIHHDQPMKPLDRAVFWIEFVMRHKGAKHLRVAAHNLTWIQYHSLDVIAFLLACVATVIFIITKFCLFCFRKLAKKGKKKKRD

Chain of UGT2B4 (P06133 24-528): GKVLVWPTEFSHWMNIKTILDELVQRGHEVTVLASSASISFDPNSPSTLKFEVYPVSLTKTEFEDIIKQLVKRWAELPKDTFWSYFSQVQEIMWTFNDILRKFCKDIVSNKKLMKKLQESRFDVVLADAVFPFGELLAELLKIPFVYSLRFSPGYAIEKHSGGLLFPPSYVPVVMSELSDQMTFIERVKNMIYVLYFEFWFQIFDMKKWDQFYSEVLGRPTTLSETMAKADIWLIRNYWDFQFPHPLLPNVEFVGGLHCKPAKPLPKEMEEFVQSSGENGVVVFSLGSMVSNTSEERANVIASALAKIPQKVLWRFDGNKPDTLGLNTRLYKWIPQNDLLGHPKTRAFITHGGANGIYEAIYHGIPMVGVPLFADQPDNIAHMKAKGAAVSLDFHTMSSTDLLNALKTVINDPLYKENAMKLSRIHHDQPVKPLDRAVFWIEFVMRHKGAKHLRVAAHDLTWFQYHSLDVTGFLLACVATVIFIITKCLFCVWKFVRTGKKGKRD
Chain of UGT1A1 (P22309 26-533): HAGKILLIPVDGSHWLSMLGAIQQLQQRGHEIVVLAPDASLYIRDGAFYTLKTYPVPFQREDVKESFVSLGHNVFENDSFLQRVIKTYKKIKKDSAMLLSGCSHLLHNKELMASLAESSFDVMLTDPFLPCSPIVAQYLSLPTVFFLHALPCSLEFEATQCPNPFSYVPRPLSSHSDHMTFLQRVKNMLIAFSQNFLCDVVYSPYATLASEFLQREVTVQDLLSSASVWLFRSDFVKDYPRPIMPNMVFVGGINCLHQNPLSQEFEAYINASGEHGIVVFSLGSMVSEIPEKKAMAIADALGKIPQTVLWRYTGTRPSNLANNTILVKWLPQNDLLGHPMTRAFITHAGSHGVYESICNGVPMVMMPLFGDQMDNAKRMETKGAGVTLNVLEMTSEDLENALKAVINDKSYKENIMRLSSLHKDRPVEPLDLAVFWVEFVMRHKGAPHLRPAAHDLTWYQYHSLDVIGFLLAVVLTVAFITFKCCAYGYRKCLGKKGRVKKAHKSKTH
Chain of CYP2C9 (P11712 whole entry): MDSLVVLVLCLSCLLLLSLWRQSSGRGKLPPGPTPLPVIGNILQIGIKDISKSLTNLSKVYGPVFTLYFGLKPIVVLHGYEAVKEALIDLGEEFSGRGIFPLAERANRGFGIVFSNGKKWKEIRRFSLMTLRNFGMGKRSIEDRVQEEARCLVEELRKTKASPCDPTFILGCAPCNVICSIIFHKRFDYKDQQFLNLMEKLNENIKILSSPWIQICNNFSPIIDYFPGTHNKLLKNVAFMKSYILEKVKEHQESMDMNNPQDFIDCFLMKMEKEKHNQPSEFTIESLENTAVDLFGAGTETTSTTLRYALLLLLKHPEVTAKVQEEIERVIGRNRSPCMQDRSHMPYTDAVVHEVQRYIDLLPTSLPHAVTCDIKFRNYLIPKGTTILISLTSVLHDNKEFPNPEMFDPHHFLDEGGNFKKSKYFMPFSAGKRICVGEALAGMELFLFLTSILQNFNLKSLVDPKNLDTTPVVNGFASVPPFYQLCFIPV
Chain of CYP2E1 (P05181 whole entry): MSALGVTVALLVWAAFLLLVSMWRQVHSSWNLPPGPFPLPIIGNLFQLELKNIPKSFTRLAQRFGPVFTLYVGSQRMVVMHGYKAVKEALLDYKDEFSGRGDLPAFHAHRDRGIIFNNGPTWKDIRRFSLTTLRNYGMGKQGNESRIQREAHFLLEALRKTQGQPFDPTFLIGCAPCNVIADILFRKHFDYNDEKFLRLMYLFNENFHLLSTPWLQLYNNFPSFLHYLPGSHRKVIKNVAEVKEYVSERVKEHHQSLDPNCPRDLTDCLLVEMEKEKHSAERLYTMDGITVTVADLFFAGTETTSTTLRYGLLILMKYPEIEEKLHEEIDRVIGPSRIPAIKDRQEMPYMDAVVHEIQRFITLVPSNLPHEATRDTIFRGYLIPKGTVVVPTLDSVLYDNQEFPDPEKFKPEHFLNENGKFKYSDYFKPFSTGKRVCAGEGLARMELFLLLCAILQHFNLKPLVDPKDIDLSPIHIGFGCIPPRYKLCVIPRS
Chain of UGT1A9 (O60656 26-530): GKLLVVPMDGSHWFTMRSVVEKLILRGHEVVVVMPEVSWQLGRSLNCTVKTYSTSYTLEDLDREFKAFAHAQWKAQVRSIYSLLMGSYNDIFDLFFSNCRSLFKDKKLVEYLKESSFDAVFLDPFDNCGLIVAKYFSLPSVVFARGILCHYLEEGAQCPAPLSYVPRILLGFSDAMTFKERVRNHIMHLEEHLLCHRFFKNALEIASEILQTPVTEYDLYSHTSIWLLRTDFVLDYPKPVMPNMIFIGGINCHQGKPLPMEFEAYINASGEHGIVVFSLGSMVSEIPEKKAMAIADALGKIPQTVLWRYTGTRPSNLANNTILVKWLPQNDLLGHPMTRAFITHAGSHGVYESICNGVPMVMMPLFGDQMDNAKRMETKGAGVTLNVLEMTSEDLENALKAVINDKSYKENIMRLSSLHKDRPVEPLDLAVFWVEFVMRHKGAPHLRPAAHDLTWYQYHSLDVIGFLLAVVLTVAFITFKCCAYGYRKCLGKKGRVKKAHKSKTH
Chain of UGT2B7 (P16662 24-529): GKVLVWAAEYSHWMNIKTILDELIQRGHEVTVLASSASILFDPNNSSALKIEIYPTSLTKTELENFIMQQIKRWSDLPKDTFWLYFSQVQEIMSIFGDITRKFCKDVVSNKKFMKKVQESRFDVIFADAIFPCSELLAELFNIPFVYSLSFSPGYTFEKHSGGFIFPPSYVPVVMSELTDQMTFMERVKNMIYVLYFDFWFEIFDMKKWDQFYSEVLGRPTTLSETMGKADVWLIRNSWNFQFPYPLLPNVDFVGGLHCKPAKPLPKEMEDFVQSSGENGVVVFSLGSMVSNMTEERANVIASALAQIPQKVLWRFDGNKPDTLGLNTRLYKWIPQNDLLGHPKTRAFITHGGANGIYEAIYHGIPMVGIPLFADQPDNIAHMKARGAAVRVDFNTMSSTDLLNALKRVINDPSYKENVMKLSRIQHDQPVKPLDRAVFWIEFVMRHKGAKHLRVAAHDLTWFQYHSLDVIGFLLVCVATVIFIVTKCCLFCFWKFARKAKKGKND

With `COc1ccncc1C#CCN` [Compound K, 3-(4-methoxypyridin-3-yl)prop-2-yn-1-amine] the “IC50 ratio UGT2B4/UGT2B10” value (UGT2B4) was 3.5, the “IC50 ratio CYP2C8/CYP2A6” value (CYP2C8) was over 15 and the “IC50 ratio CYP2C9/CYP2A6” value (CYP2C9) was 8.2. For the same compound, the “IC50 ratio UGT1A9/UGT2B10” value (UGT1A9) was 5, the IC50 (CYP2A6 [1]) was 3.4 µM and the IC50 (CYP2A6 [2]) was under 10 µM. For the same compound, the IC50 (UGT2B10; IC50 against UGT2B10) was under 60 µM, the IC50 (UGT2B10; IC50 against UGT2B10 (μM), Table 9, pooled human liver microsomes, nicotine 500 μM) was 33 µM and the “IC50 ratio UGT2B7/UGT2B10” value (UGT2B7) was 13. The “IC50 ratio CYP2B6/CYP2A6” value (CYP2B6) was 3.2, the “IC50 ratio CYP2E1/CYP2A6” value (CYP2E1) was 5.3 and the “IC50 ratio UGT1A1/UGT2B10” value (UGT1A1) was 4. For the same compound, the “IC50 ratio UGT2B15/UGT2B10” value (UGT2B15) was 30.
